Assay results as given in PubChem BioAssay (NCI).
Where “and” joins values, the source holds several entries; their conditions need not be identical. Equal entries are not always repeated.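 Briefly, cells in 96-well plates were exposed to five compound concentrations for 48 h, and endpoints were estimated by linear interpolation. Abbreviation: GI50, concentration required for 50% inhibition of growth. TGI denotes the concentration required for complete inhibition of growth.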

Experiments:
Assay in all cases: DTP human tumour cell line panel, 48 h
[1] = tested on: A549 NSCLC
[2] = tested on: EKVX NSCLC
[3] = tested on: HS 578T breast
[4] = tested on: HT29 colon
[5] = tested on: KM12 colon
[6] = tested on: OVCAR-4 ovarian
[7] = tested on: RXF 393 renal
[8] = tested on: SF-295 CNS
[9] = tested on: SK-OV-3 ovarian
[10] = tested on: U251 CNS

SMILES	GI50 [1]	TGI [1]	GI50 [2]	TGI [2]	GI50 [3]	TGI [3]	GI50 [4]	TGI [4]	GI50 [5]	TGI [5]	GI50 [6]	TGI [6] [µM]	GI50 [7]	TGI [7]	GI50 [8]	TGI [8]	GI50 [9]	TGI [9]	GI50 [10]	TGI [10]
O=c1[nH]nc2c3c(cccc13)NC(CN1Cc3ccccc3C1)=N2	5.69 µM	> 100 µM	3.92 µM	> 100 µM	37.4 µM	> 100 µM	3.45 µM	> 100 µM	4.41 µM	> 100 µM	5.77 µM	> 100	3.79 µM	74.1 µM	5.61 µM	> 100 µM	3.11 µM	> 100 µM	8.05 µM	> 100 µM
O=C1C(Cl)=C(N2CCOCC2)C(=O)c2ccccc21	17.8 µM	32.3 µM	3.75 µM	14.3 µM	20.8 µM	69.6 µM	5.94 µM	21.8 µM	13.7 µM	27.6 µM	1.61 µM	3.02	1.85 µM	3.26 µM	19.2 µM	36.7 µM	18.3 µM	32.2 µM	5.07 µM	17.8 µM
O=[N+]([O-])c1cc(Br)cc2c1[nH]c1ccc(Br)cc12	6.11 µM	45 µM	3.19 µM	> 100 µM	2.25 µM	20 µM	4.03 µM	> 100 µM	13.3 µM	> 100 µM	2.48 µM	8.47	5.04 µM	20.9 µM	2.78 µM	9.35 µM	3.59 µM	15.4 µM	14.8 µM	93.2 µM
Cc1c(Cl)cccc1NC(=O)c1sc2nc3c(cc2c1N)CCCCCC3	0.369 µM	> 50 µM	0.234 µM	> 50 µM	0.204 µM	22.9 µM	0.188 µM	6.56 µM	0.197 µM	> 50 µM	0.936 µM	15.2	0.133 µM	3.5 µM	0.168 µM	13 µM	0.279 µM	26.5 µM	0.223 µM	14.3 µM
CN(C)CCNC(=O)c1cc([N+](=O)[O-])ccn1		> 100 µM		> 100 µM		> 100 µM		48.1 µM		> 100 µM		43		> 100 µM		93.9 µM		> 100 µM		92.8 µM
N#CSCC1CC(O)(c2ccccc2)C(c2ccccc2)C(c2ccc(F)cc2)O1 (stereo not drawn)	8.38 µM	40.5 µM	2.46 µM	7.58 µM	3.18 µM	12.9 µM	2.61 µM	11.6 µM	2.32 µM	5.85 µM	2.84 µM	10.9	2.22 µM	4.4 µM	1.88 µM	7.08 µM	28.6 µM	> 90.6 µM	3.66 µM	15.1 µM
Fc1ccc(-c2nnc3sc(-c4cccc(Cl)c4)nn23)cc1Cl	> 100 µM	> 100 µM	> 100 µM	> 100 µM	> 100 µM	> 100 µM	> 100 µM	> 100 µM	> 100 µM	> 100 µM	> 100 µM	> 100	39.5 µM	> 100 µM	> 100 µM	> 100 µM	> 100 µM	> 100 µM	> 100 µM	> 100 µM
CC(=O)Oc1cccc2c1C(=O)C(Br)(Br)CCC2		40 µM		26.7 µM		39.7 µM		14 µM		23.2 µM		3.67		12.6 µM		31.3 µM		24.9 µM		23.7 µM
CN(C)CCCn1c2c3ccccc3ccc2c2oc(=O)c3ccccc3c21		11 µM		60.7 µM		> 65.6 µM		14.7 µM		10.3 µM		> 95		2.75 µM		7.17 µM		> 61.8 µM		9.26 µM
C=C(CN1CCN(c2ccccc2F)CC1)c1ccc(C(=O)Nc2ccccc2N)cc1	3.52 µM	35.4 µM	4.67 µM	> 100 µM	3.14 µM	> 100 µM	1.19 µM	4.37 µM	1.53 µM	11.4 µM	5.01 µM	> 100	0.702 µM	7.08 µM	2.38 µM	18 µM	7.73 µM	> 100 µM	1.4 µM	14.7 µM
Cc1cc(-c2nc3ccc(O)cc3s2)ccc1N	34.5 µM	> 100 µM	4.07 µM	58.3 µM	95.5 µM	> 100 µM	37.5 µM	> 100 µM	57.9 µM	> 100 µM	37.2 µM	> 100	30.5 µM	> 100 µM	31.5 µM	> 100 µM	36.9 µM	> 100 µM	31.3 µM	> 100 µM
CCOC(=O)C(Cc1c[nH]c2cc([N+](=O)[O-])ccc12)(NC(C)=O)C(=O)OCC		> 1000 µM	59 µM	> 614 µM	61.3 µM	> 798 µM	> 1000 µM	> 1000 µM	> 1000 µM	> 1000 µM	> 1000 µM	> 1000	58.6 µM	133 µM	57.9 µM and 56.9 µM	> 478 µM	184 µM	> 1000 µM	104 µM	> 693 µM
COc1cccc(/C=C/C(=O)c2cc3c(N)c(C(=O)Nc4cccc(Cl)c4C)sc3nc2C)c1	1.72 µM	> 50 µM	2.61 µM	> 31.8 µM	1.71 µM	> 50 µM	0.418 µM	2.41 µM	1.02 µM	2.8 µM	1.64 µM	> 14.1	0.573 µM	1.29 µM	1.5 µM	9.56 µM	2.2 µM	> 50 µM	0.959 µM	2.05 µM
CN(/N=N/c1nc(OCc2ccccc2)c2[nH]cnc2n1)C(=O)N(C)/N=N/c1nc(OCc2ccccc2)c2[nH]cnc2n1	56 µM	> 100 µM	38.3 µM	> 100 µM	25.5 µM	85.3 µM	60.5 µM	> 100 µM	84.2 µM	> 100 µM	> 100 µM	> 100	79.9 µM	> 100 µM	32.4 µM	> 100 µM	42.1 µM	> 100 µM	49.9 µM	> 100 µM
COc1cc(-c2cn(-c3ccc(Cl)cc3)c(=O)[nH]2)cc(OC)c1OC	> 100 µM	> 100 µM	> 100 µM	> 100 µM	> 100 µM	> 100 µM	> 100 µM	> 100 µM	> 100 µM	> 100 µM	> 100 µM	> 100	> 100 µM	> 100 µM	> 100 µM	> 100 µM	> 100 µM	> 100 µM	> 100 µM	> 100 µM
COC[C@H]1OC(=O)c2coc3c2[C@@]1(C)C1=C(C3=O)[C@@H]2CCC(=O)[C@@]2(C)C[C@H]1OC(C)=O		> 100 µM		> 100 µM	0.341 µM	6.9 µM		97.8 µM		> 100 µM	18.6 µM	> 100	0.264 µM	3.07 µM		63.1 µM	2.22 µM	23.5 µM	36.8 µM	> 100 µM
Cc1ccc(C(=O)N/N=C/c2cccc(Oc3ccccc3)c2)cn1	17 µM	> 100 µM	8.36 µM	> 100 µM	6.74 µM	> 100 µM	3.25 µM	> 100 µM	3.69 µM	> 100 µM	26.6 µM	> 100	18.9 µM	> 100 µM	3.36 µM	> 36.5 µM	13 µM	> 100 µM	6.03 µM	> 100 µM
COc1ccc(/C=C(\C#N)c2cc(OC)c3c(c2)OCO3)cc1	< 0.0148 µM	44.1 µM	1.98 µM	> 100 µM	0.01 µM	39.1 µM	< 0.01 µM	0.694 µM	< 0.01 µM	1.66 µM	0.0617 µM	> 66.6	< 0.01 µM	30.6 µM	< 0.01 µM	21 µM	< 0.0111 µM	0.458 µM	< 0.0179 µM	69.9 µM
Cc1c(CN2CCC(Nc3ncnc4sc(CC(F)(F)F)cc34)CC2)ccc2c1cc(C#N)n2Cc1cn[nH]c1	8.31 µM and 10.1 µM	23.3 µM	1.92 µM and 3.08 µM	21.2 µM and > 43.4 µM	6.23 µM and 10.1 µM	> 68.3 µM	1.75 µM and 2.45 µM	5.95 µM	5.36 µM and 3.22 µM	22.2 µM	2.2 µM and 1.77 µM	22.3	1.94 µM and 2.74 µM	12.9 µM and 10.5 µM	2.72 µM and 3.06 µM	14.9 µM	10 µM and > 24.1 µM	> 47.4 µM	4.65 µM and 3.16 µM	19.6 µM
Cn1c(=O)c2[nH]c(COCc3nc4c([nH]3)c(=O)n(C)c(=O)n4C)nc2n(C)c1=O		> 100 µM		> 100 µM		> 100 µM		> 100 µM		> 100 µM		> 100		> 100 µM		> 100 µM		> 100 µM		> 100 µM
O=C(Nc1ccncc1)C(=O)c1cn(S(=O)(=O)c2ccccc2F)c2ccccc12	13.5 µM	59.8 µM	3.72 µM	> 100 µM	5.27 µM	> 100 µM	0.45 µM	> 31.9 µM	0.837 µM	> 100 µM	3.59 µM	> 100	2.44 µM	9.18 µM	2.11 µM	10.2 µM	12 µM	36.6 µM	1.89 µM	34.3 µM
CCN(CC)CCCC(C)Nc1cnc(C(=O)Nc2cc(F)cc3cccnc23)cn1 (stereo not drawn)	8.14 µM and 2.41 µM	22.3 µM and 6.28 µM	10.2 µM and 1.22 µM	22.1 µM and 2.51 µM	3.97 µM and 2.15 µM	21.1 µM and 6.62 µM	2.96 µM and 0.668 µM	10.8 µM and 4.76 µM	6.09 µM and 1.78 µM	19.5 µM and 3.34 µM	2.24 µM and 0.35 µM		4.26 µM and 1.32 µM	16.9 µM and 2.69 µM	12.7 µM and 1.81 µM	26.4 µM and 3.33 µM	14 µM and 1.68 µM	27.7 µM and 3.68 µM	5.72 µM and 1.56 µM	18.4 µM and 3.01 µM
c1cncc(CNc2ccccc2-c2nnc(Nc3ccc4c(c3)OCCO4)o2)c1	0.294 µM	> 100 µM	0.609 µM	> 100 µM	0.232 µM	> 100 µM	0.0504 µM	15.2 µM	0.067 µM	1.86 µM	0.549 µM	42.5	0.0343 µM	0.251 µM	0.0936 µM	> 100 µM	0.0745 µM	1.79 µM	0.157 µM	> 100 µM
CCS(=O)(=O)c1ccc(OC)c(Nc2nccc(N(C)c3ccc4c(C)[nH]nc4c3)n2)c1	9.83 µM	> 25 µM	6.85 µM	> 25 µM	2.69 µM	14.4 µM	5.66 µM	16.4 µM	5.7 µM	> 25 µM	5.66 µM	> 25	2.7 µM	7.81 µM	4.17 µM	10.4 µM	5.03 µM	17.8 µM	7.28 µM	> 25 µM
CCOc1cc2ncc(C#N)c(Nc3ccc(F)c(Cl)c3)c2cc1NC(=O)/C=C/CN(C)C	0.324 µM	> 9.66 µM	0.0187 µM	> 6.51 µM	0.381 µM	> 10 µM	0.827 µM	> 5.95 µM	1.22 µM	3.01 µM	0.235 µM	4.1	0.255 µM	3.46 µM	2.25 µM	> 10 µM	0.022 µM	0.139 µM	0.625 µM	> 4.89 µM
NC(=O)C1=C(c2ccccc2)c2ccccc2C1=O		37.6 µM		33.3 µM		64.2 µM		34.2 µM		30.9 µM		33.5		35.9 µM		41.9 µM		33.2 µM		35.1 µM
C=C1C(=O)O[C@@H]2C[C@@H](C)[C@@H]3[C@@H](OC4OC(COC(C)=O)C(O)C(O)C4O)CC(=O)[C@@]3(C)C[C@H]12 (stereo partly drawn)		22.3 µM		7.6 µM		> 100 µM		2.93 µM		22.9 µM		12.5		4.21 µM		31.3 µM		37.4 µM		19.7 µM
